In ChEMBL document CHEMBL3352660, “Design, synthesis and pharmacological evaluation of novel polycyclic heteroarene ethers as PDE10A inhibitors: part II” (Bioorg Med Chem Lett, 2014):

How the values were obtained:
[1] = target: T1, cAMP and cAMP-inhibited cGMP 3',5'-cyclic phosphodiesterase 10A (Homo sapiens, UniProt Q9Y233); assay: Inhibition of human recombinant GST-tagged PDE10A using [3H]-cAMP as substrate at 1 uM after 30 mins by scintillation proximity assay
[2] = target: T1, cAMP and cAMP-inhibited cGMP 3',5'-cyclic phosphodiesterase 10A; assay: Inhibition of human recombinant GST-tagged PDE10A using [3H]-cAMP as substrate after 30 mins by scintillation proximity assay
[3] = target: T2, cAMP and cAMP-inhibited cGMP 3',5'-cyclic phosphodiesterase 10A (Rattus norvegicus, UniProt Q9QYJ6); assay: Inhibition of rat recombinant GST-tagged PDE10A using [3H]-cAMP as substrate by scintillation proximity assay
T2 sequence (Q9QYJ6 whole entry): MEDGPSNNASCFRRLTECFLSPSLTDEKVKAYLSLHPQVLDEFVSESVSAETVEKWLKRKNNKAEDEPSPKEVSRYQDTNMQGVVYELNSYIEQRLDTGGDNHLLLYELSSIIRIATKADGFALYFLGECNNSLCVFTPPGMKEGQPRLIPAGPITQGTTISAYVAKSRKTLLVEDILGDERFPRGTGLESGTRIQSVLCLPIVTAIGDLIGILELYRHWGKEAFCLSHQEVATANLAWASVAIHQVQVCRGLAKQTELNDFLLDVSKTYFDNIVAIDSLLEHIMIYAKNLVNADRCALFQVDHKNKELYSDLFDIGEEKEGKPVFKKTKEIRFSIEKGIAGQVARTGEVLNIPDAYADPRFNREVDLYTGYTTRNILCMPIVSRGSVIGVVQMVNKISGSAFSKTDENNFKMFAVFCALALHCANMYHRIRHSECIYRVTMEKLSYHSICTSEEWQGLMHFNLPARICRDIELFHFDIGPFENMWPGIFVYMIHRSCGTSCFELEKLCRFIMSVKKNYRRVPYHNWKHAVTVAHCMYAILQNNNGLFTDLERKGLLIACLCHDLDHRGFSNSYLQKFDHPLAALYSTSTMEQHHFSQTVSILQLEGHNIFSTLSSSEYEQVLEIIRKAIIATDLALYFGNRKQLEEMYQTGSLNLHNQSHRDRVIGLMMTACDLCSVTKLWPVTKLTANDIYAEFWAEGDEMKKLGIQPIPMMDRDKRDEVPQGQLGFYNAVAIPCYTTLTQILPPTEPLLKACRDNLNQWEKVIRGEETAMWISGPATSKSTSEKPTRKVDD

[4] = target: cGMP-dependent 3',5'-cyclic phosphodiesterase (Homo sapiens) (UniProt O00408); assay: Inhibition of human recombinant PDE2A using cAMP as substrate at 1 uM after 30 mins by HTRF method
cGMP-dependent 3',5'-cyclic phosphodiesterase (Homo sapiens), sequence (O00408 whole entry): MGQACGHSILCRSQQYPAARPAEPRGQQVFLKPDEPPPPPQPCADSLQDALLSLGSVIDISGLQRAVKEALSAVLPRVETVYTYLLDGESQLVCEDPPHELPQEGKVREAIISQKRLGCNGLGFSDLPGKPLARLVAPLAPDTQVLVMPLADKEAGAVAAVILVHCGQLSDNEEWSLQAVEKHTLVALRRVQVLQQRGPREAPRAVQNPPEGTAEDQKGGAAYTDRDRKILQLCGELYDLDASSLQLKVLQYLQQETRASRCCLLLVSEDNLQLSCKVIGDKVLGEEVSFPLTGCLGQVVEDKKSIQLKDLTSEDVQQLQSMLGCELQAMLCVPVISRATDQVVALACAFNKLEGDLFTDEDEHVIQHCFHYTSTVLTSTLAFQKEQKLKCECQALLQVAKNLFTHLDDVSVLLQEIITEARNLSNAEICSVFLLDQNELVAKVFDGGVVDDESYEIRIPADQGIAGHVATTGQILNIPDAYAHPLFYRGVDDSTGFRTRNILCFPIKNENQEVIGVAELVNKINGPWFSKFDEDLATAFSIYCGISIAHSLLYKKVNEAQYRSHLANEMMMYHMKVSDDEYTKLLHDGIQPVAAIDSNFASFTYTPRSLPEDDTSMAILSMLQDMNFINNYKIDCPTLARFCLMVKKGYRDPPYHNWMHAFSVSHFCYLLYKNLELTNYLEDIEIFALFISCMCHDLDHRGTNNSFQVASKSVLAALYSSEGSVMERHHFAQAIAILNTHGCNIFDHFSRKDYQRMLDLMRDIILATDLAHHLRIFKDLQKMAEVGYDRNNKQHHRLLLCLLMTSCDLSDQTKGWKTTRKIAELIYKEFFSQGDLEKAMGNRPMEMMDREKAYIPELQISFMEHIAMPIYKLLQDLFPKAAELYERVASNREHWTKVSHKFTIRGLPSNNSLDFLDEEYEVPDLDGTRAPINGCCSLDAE

[5] = target: cGMP-dependent 3',5'-cyclic phosphodiesterase (Homo sapiens) (UniProt O00408); assay: Inhibition of human recombinant PDE2A using cAMP as substrate at 10 uM after 30 mins by HTRF method
[6] = target: cGMP-inhibited 3',5'-cyclic phosphodiesterase 3A (Homo sapiens) (UniProt Q14432); assay: Inhibition of human recombinant PDE3A using cAMP as substrate at 1 uM after 30 mins by HTRF method
cGMP-inhibited 3',5'-cyclic phosphodiesterase 3A (Homo sapiens), sequence (Q14432 whole entry): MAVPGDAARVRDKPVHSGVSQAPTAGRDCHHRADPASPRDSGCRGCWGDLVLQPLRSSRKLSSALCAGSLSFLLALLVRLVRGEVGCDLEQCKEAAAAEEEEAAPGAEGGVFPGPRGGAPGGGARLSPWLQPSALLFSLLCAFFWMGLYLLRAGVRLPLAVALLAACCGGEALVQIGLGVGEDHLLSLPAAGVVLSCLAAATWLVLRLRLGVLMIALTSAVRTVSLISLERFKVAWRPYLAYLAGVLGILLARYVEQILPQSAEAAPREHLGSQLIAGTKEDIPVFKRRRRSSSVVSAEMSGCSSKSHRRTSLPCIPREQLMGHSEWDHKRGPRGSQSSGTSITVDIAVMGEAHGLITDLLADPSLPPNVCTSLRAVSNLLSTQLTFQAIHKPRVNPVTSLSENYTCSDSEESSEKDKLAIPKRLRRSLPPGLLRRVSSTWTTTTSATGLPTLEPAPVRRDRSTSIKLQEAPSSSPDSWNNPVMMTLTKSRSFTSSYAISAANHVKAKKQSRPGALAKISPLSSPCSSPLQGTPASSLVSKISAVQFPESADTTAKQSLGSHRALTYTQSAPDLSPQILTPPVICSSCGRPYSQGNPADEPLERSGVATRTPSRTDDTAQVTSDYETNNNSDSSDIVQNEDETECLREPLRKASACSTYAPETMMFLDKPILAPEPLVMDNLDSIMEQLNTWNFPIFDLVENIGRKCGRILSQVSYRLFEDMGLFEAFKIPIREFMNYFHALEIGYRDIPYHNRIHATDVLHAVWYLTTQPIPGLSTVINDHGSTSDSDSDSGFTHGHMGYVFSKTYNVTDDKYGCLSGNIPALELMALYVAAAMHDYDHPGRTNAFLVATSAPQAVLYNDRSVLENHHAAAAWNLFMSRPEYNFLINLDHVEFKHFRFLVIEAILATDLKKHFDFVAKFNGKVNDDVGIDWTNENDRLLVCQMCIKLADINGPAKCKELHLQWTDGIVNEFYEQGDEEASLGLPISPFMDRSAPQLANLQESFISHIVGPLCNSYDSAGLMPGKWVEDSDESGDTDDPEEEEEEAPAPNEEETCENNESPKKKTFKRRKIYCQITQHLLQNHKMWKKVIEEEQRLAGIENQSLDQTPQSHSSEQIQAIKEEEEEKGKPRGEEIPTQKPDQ

[7] = target: cGMP-inhibited 3',5'-cyclic phosphodiesterase 3A (Homo sapiens) (UniProt Q14432); assay: Inhibition of human recombinant PDE3A using cAMP as substrate at 10 uM after 30 mins by HTRF method
[8] = target: 3',5'-cyclic-AMP phosphodiesterase 4D (Homo sapiens) (UniProt Q08499); assay: Inhibition of human recombinant PDE4D using [3H]-cAMP as substrate at 1 uM after 30 mins by two-step radiometric assay
3',5'-cyclic-AMP phosphodiesterase 4D (Homo sapiens), sequence (Q08499 whole entry): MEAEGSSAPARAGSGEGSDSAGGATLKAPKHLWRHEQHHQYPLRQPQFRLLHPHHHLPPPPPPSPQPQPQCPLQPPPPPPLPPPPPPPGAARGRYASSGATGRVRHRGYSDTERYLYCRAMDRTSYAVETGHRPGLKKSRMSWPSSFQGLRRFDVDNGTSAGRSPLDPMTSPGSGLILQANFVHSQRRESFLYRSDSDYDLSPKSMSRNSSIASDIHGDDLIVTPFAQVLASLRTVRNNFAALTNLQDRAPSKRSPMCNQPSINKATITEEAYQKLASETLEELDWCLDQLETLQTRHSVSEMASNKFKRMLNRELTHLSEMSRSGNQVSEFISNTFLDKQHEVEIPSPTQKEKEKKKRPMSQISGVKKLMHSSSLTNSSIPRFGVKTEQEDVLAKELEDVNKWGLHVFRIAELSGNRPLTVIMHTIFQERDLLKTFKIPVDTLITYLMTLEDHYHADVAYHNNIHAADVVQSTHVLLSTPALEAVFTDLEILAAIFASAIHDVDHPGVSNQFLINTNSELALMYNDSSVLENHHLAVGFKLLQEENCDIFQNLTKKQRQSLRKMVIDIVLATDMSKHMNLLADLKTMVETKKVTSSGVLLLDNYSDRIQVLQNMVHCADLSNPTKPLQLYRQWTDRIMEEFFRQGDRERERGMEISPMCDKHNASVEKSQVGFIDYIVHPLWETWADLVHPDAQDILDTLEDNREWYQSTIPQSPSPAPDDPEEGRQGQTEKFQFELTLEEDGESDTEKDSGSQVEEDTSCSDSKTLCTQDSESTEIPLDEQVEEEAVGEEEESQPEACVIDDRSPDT

[9] = target: 3',5'-cyclic-AMP phosphodiesterase 4D (Homo sapiens) (UniProt Q08499); assay: Inhibition of human recombinant PDE4D using [3H]-cAMP as substrate at 10 uM after 30 mins by two-step radiometric assay
[10] = target: cGMP-specific 3',5'-cyclic phosphodiesterase (Homo sapiens) (UniProt O76074); assay: Inhibition of human recombinant PDE5A using […] as substrate at 1 uM after 30 mins by scintillation proximity assay
[11] = target: cGMP-specific 3',5'-cyclic phosphodiesterase (Homo sapiens) (UniProt O76074); assay: Inhibition of human recombinant PDE5A using […] as substrate at 10 uM after 30 mins by scintillation proximity assay
[12] = target: High affinity 3',5'-cyclic-AMP phosphodiesterase 7A (Homo sapiens) (UniProt Q13946); assay: Inhibition of human recombinant PDE7A using [3H]-cAMP as substrate at 1 uM after 30 mins by two-step radiometric assay
High affinity 3',5'-cyclic-AMP phosphodiesterase 7A (Homo sapiens), sequence (Q13946 whole entry): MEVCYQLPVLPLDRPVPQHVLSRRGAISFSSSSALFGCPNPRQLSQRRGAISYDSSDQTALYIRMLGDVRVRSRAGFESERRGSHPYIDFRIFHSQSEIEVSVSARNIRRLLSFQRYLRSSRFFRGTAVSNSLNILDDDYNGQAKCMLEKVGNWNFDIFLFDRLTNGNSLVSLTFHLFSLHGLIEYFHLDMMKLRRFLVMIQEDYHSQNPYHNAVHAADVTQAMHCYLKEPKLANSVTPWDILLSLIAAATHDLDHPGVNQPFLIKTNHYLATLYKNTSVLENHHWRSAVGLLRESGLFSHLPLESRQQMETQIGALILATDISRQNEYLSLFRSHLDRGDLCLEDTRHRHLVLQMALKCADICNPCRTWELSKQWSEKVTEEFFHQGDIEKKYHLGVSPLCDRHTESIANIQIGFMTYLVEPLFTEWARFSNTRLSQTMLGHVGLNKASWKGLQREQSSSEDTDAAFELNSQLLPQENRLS

[13] = target: High affinity 3',5'-cyclic-AMP phosphodiesterase 7A (Homo sapiens) (UniProt Q13946); assay: Inhibition of human recombinant PDE7A using [3H]-cAMP as substrate at 10 uM after 30 mins by two-step radiometric assay
[14] = target: Dual 3',5'-cyclic-AMP and -GMP phosphodiesterase 11A (Homo sapiens) (UniProt Q9HCR9); assay: Inhibition of human recombinant PDE11A using [3H]-cAMP as substrate at 1 uM after 30 mins by two-step radiometric assay
[15] = target: Dual 3',5'-cyclic-AMP and -GMP phosphodiesterase 11A (Homo sapiens) (UniProt Q9HCR9); assay: Inhibition of human recombinant PDE11A using [3H]-cAMP as substrate at 10 uM after 30 mins by two-step radiometric assay
[16] = Metabolic stability in Wistar rat liver microsomes incubated for 10 mins prior to NADPH addition measured after 60 mins by LC/MS/MS analysis; assay type: ADME; settings: read-out: Stability
[17] = Metabolic stability in CD1 mouse liver microsomes incubated for 10 mins prior to NADPH addition measured after 60 mins by LC/MS/MS analysis; assay type: ADME; settings: read-out: Stability
[18] = Metabolic stability in Beagle dog liver microsomes incubated for 10 mins prior to NADPH addition measured after 60 mins by LC/MS/MS analysis; assay type: ADME, Canis lupus familiaris; settings: read-out: Stability
[19] = Metabolic stability in cynomolgus monkey liver microsomes incubated for 10 mins prior to NADPH addition measured after 60 mins by LC/MS/MS analysis; assay type: ADME, Macaca fascicularis; settings: read-out: Stability
[20] = Metabolic stability in human liver microsomes incubated for 10 mins prior to NADPH addition measured after 60 mins by LC/MS/MS analysis; assay type: ADME; settings: read-out: Stability
[21] = target: T3, cAMP and cAMP-inhibited cGMP 3',5'-cyclic phosphodiesterase 10A (Mus musculus, UniProt Q8CA95); assay: Inhibition of mouse recombinant GST-tagged PDE10A using [3H]-cAMP as substrate after 30 mins by scintillation proximity assay
T3 sequence (Q8CA95 whole entry): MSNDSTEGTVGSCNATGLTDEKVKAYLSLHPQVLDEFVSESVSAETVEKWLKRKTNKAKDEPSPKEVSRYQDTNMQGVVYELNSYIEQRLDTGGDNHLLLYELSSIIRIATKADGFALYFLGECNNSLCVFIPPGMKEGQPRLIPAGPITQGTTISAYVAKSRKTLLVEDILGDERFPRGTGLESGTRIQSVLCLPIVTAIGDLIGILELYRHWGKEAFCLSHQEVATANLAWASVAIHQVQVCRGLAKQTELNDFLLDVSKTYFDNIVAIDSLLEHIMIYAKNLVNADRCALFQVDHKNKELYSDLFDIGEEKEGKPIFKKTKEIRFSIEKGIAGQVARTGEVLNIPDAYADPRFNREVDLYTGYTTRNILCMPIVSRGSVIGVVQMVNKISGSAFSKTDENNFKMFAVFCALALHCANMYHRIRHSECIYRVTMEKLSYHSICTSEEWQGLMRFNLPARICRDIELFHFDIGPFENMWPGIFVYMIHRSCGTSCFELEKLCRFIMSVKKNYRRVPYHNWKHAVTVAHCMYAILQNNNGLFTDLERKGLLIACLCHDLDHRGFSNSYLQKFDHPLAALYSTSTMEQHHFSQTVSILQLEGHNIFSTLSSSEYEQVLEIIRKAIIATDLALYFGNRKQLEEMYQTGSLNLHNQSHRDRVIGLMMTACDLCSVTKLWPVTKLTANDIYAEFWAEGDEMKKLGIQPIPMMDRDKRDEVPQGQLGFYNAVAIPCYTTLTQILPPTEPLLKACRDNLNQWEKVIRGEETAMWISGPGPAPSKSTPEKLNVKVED

T1 sequence (Q9Y233 whole entry): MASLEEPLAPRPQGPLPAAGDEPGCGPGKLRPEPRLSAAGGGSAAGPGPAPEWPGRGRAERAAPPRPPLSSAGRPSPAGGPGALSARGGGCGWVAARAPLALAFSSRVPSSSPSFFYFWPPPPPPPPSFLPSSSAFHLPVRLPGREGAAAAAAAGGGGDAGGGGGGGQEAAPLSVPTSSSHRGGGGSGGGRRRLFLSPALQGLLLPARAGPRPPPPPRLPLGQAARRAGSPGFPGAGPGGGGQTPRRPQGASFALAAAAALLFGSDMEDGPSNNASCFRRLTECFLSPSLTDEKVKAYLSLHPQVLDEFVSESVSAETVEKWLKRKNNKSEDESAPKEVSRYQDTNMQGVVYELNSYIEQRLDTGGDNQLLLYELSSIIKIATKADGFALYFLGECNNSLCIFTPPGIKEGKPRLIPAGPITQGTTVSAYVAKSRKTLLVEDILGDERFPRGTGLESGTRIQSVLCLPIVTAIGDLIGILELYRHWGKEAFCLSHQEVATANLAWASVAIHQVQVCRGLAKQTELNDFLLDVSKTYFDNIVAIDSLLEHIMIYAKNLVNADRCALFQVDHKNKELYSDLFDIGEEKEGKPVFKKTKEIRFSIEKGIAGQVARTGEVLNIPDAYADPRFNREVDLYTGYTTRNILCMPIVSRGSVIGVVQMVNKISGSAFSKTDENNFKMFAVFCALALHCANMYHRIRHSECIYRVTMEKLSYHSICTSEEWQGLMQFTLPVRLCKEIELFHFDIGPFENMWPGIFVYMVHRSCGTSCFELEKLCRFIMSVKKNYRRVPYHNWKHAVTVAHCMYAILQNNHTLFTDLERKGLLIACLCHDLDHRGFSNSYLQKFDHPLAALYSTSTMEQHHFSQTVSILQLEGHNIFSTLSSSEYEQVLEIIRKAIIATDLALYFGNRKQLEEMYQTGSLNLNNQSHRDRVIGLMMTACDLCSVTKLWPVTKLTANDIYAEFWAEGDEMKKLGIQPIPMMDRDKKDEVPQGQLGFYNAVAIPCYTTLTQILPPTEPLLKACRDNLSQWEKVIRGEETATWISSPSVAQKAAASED

Structure (SMILES) | inhibition [1] [%] | IC50 [2] [nM] | IC50 [3] [nM] | inhibition [4] [%] | inhibition [5] [%] | inhibition [6] [%] | inhibition [7] [%] | inhibition [8] [%] | inhibition [9] [%] | inhibition [10] [%] | inhibition [11] [%] | inhibition [12] [%] | inhibition [13] [%] | inhibition [14] [%] | inhibition [15] [%] | remaining at 1 h [16] [%] | remaining at 1 h [17] [%] | remaining at 1 h [18] [%] | remaining at 1 h [19] [%] | remaining at 1 h [20] [%] | also measured
Cn1cc(-c2ccc(Oc3nccnc3-c3ccc(F)cc3)cc2)c2nc3ccccc3cc21 | 76.9 | 177 | – | – | – | – | – | – | – | – | – | – | – | – | – | – | – | – | – | – | –
Cn1cc(-c2ccc(Oc3nccnc3-c3ccncc3)cc2)c2ncc(Cl)cc21 | 79.7 | 71 | 141 | 11.3 | 16.1 | 0.7 | 9.8 | 4.1 | 25.4 | 0.1 | 19.3 | 5.9 | 53.1 | 3.1 | 5.7 | 68 | 70.5 | 55.3 | 40.7 | 77 | –
Cn1cc(-c2cccc(Oc3nccc(-c4cn[nH]c4)n3)c2)c2nc3ccccc3cc21 | 89.3 | 20.9 | 122 | 16.1 | 40.8 | 4.5 | 27.5 | 7.9 | 34.7 | 8.2 | 19 | 16.7 | 27.2 | 27.3 | 38.5 | 17.3 | 60.4 | 52 | 38.1 | 75.4 | –
Cn1cc(-c2ccc(Oc3nccnc3-c3ccncc3)cc2)c2nc3ccccc3cc21 | 97.2 | 8.54 | 29.4 | 5.3 | 34.1 | 0.8 | 2.5 | 0 | 7.6 | 9.4 | 19.3 | 4 | 15.8 | 0.8 | 6.8 | 75 | 75.1 | 92 | 71 | 96 | IC50 [21]: 22.6 nM
Cn1cc(C2=CCC(Oc3nccnc3-c3cncnc3)CC2)c2ncccc21 (stereo unspecified) | 78 | 136 | 552 | – | – | – | – | – | – | – | – | – | – | – | – | 5.9 | 8.5 | 43.3 | 0 | 12.2 | –
Cn1cc(-c2cccc(Oc3nccc(-c4ccc(F)cc4)n3)c2)c2nc3ccccc3cc21 | 76.3 | 116 | – | – | – | – | – | – | – | – | – | – | – | – | – | – | – | – | – | – | –
Cn1cc(-c2cccc(Oc3nccc(-c4cncnc4)n3)c2)c2nc3ccccc3cc21 | 95 | 18.2 | 90.3 | 11.4 | 38.5 | 1.1 | 4.8 | 4.2 | 57 | 1.5 | 23.6 | 4.5 | 14 | 24.4 | 43.8 | 44.7 | 3.9 | 40.3 | 4.5 | 39.8 | –
Cn1cc(-c2cccc(Oc3nccnc3-c3cncnc3)c2)c2nc3ccccc3cc21 | 76.3 | 267 | 1450 | – | – | – | – | – | – | – | – | – | – | – | – | – | – | – | – | – | –
Cn1cc(-c2ccc(Oc3nccc(-c4cncnc4)n3)cc2)c2nc3ccccc3cc21 | 85.3 | 128 | – | – | – | – | – | – | – | – | – | – | – | – | – | – | – | – | – | – | –
Cn1cc(-c2ccc(Oc3nccnc3-c3cncnc3)cc2)c2nc3ccccc3cc21 | 94.8 | 19.1 | 31.1 | 8.9 | 14.2 | 0.3 | 9.4 | 1.3 | 19.5 | 9.4 | 17.3 | 6 | 20.2 | 3.3 | 21.8 | 83.1 | 76.1 | 77 | 68.3 | 85.2 | –
COc1ccc(-c2nccnc2Oc2ccc(-c3cn(C)c4cc5ccccc5nc34)cc2)cc1 | 72.3 | 153 | 132 | – | – | – | – | – | – | – | – | – | – | – | – | – | – | – | – | – | –
Cn1cc(-c2cccc(Oc3nccc(N4CCOCC4)n3)c2)c2nc3ccccc3cc21 | 93.1 | 29.2 | 167 | 15.7 | 76.2 | 0.3 | 21.5 | 5.6 | 1 | 16 | 33.3 | 5.8 | 19.5 | 44.6 | 76.3 | 0.4 | 0.6 | 1.3 | 0.6 | 8.2 | –
COc1ccc(-c2ccnc(Oc3cccc(-c4cn(C)c5cc6ccccc6nc45)c3)n2)cc1 | 72.4 | 103 | – | – | – | – | – | – | – | – | – | – | – | – | – | – | – | – | – | – | –
Cn1cc(C2CCC(Oc3nccnc3-c3cncnc3)CC2)c2ncccc21 (stereo unspecified) | 68.9 | 552 | 372 | – | – | – | – | – | – | – | – | – | – | – | – | 72.5 | 50.3 | 68.6 | 0 | 48.8 | –
